For 43 compounds, EC50 results are on record in patent US10034886B2, “GLP-1 receptor modulators” (Celgene International II SÀRL, priority 2014, dated 2018).

For this assay, the target named is T1, GLP-1R (Homo sapiens, UniProt P43220).
T1 construct: host or cells: GLP-1R CRE-bla CHO-K1 cells
T1 sequence (P43220 24-463): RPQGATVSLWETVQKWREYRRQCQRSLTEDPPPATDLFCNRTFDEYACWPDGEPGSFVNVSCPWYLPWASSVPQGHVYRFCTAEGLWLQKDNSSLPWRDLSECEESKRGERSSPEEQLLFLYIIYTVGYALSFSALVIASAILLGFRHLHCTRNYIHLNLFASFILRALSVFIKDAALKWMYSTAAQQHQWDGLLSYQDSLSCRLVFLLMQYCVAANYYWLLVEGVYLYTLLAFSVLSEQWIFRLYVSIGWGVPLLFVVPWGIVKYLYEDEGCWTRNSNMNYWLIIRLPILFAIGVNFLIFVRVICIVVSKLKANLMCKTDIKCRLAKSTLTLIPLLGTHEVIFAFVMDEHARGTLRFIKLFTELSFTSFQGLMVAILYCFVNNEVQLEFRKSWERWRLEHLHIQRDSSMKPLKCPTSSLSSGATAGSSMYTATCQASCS
T1 sequence (P01275 100-127 partner limits assumed): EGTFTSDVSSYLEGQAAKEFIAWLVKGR
In words: EC20 GLP-1(9-36) PAM cAMP assay: dose response of compound in the presence of fixed concentration of GLP-1(9-36). In kind it is cell-based. The note with it: GLP-1R CRE-bla CHO-K1 cells, compound dose response with fixed concentration of GLP-1(9-36), read-out: EC20 GLP-1(9-36) PAM EC50. The essentials: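 Positive allosteric modulation read as cAMP accumulation: compound titrations (12 points) combined with an EC20 level of GLP-1(9-36) on CHO-K1 GLP-1R CRE-bla cells, IBMX present, 30 min, 37 °C, pH 7.4 buffer. Luminescence converted to cAMP via standards; non-linear fit gave EC50 and Emax.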
On to `CCC[C@H]1CC[C@H](C2CCN(c3cnc(-c4ccc(C[C@H](NC(=O)c5ccc(C(C)(C)C)s5)C(=O)N5CC(C(=O)O)C5)cc4)nc3)CC2)CC1` [Compound 1413, 1-((S)-2-(5-(tert-butyl)thiophene-2-carboxamido)-3-(4-(5-(4-((1s,4r)-4-propylcyclohexyl)piperidin-1-yl)pyrimidin-2-yl)phenyl)propanoyl)azetidine-3-carboxylic acid], for which the EC50 (usually the concentration needed to bring the measured effect to its halfway point) was under 800 nM.

As to `CCC[C@H]1CC[C@H](C2CCN(c3cnc(-c4ccc(C[C@H](NC(=O)c5ccc(C(C)(C)C)cc5)C(=O)N5CC(C(=O)O)C5)cc4)nc3)CC2)CC1` [Compound 1414], the EC50 was under 800 nM.

In the case of `CC(C)(C)OC(=O)N1CCC(C2CCN(c3cnc(-c4ccc(C[C@H](NC(=O)c5ccc(C(C)(C)C)s5)C(=O)N5CC(C(=O)O)C5)cc4)nc3)CC2)CC1` [Compound 1415], the EC50 lay in the range of 5000 to 10000 nM.

Regarding `CCC[C@H]1CC[C@H](C2CCN(c3cnc(-c4ccc(C[C@H](NC(=O)c5ccc(C(C)(C)C)s5)C(=O)N5CC[C@H](C(=O)O)C5)cc4)nc3)CC2)CC1` [Compound 1416], the EC50 was under 800 nM.

For the compound `CCCc1ccc(C2CN(c3cnc(-c4ccc(CC(NC(=O)c5ccc(C(C)(C)C)s5)C(=O)N5CC(C(=O)O)C5)cc4)nc3)C2)cc1` (stereo not shown) [Compound 1417], the EC50 lay in the range of 800 to 2500 nM.

With `CCc1ccc(C2CN(c3cnc(-c4ccc(CC(NC(=O)c5ccc(C(C)(C)C)s5)C(=O)N5CC(C(=O)O)C5)cc4)nc3)C2)cc1` (stereo not shown) [Compound 1418], the EC50 fell in the range of 5000 to 10000 nM.

Consider `CCC[C@H]1CC[C@H](C2CCN(c3cnc(-c4ccc(C[C@H](NC(=O)c5ccc(C(C)(C)C)s5)C(=O)N5CCC[C@H]5C(=O)O)cc4)nc3)CC2)CC1` [Compound 1419], for which the EC50 is under 800 nM.

For `CCC[C@H]1CC[C@H](N2CCN(c3cnc(-c4ccc(CC(NC(=O)c5ccc(C(C)(C)C)s5)C(=O)N5CC(C(=O)O)C5)cc4)nc3)C(=O)C2)CC1` (stereo partly shown) [Compound 1420], the EC50 lay within 2500 to 5000 nM.

For `CC(C)(C)c1ccc(C(=O)NC(Cc2ccc(-c3ncc(N4CCC5CCCCC5C4)cn3)cc2)C(=O)N2CC(C(=O)O)C2)s1` (stereo not shown) [Compound 1421], the EC50 is under 800 nM.

As to `CC(C)C1CCN(c2cnc(-c3ccc(CC(NC(=O)c4ccc(C(C)(C)C)s4)C(=O)N4CC(C(=O)O)C4)cc3)nc2)CC1` (stereo not shown) [Compound 1422], the EC50 lay in the range of 800 to 2500 nM.

As to `CC(C)(C)c1ccc(C(=O)NC(Cc2ccc(-c3ncc(N4CCC(C#N)(c5ccccc5)CC4)cn3)cc2)C(=O)N2CC(C(=O)O)C2)s1` (stereo not shown) [Compound 1423], the EC50 lay in the range of 800 to 2500 nM.

As to `CC1(C)CCC(C2CCN(c3cnc(-c4ccc(C[C@H](NC(=O)c5ccc(C(C)(C)C)s5)C(=O)N5CC(C(=O)O)C5)cc4)nc3)CC2)CC1` [Compound 1424], the EC50 was under 800 nM.

Consider `COc1ccc(C2CCN(c3cnc(-c4ccc(C[C@H](NC(=O)c5ccc(C(C)(C)C)s5)C(=O)N5CC(C(=O)O)C5)cc4)nc3)CC2)cc1` [Compound 1425], for which the EC50 was 800 to 2500 nM.

For the compound `CC(C)(C)c1ccc(C(=O)N[C@@H](Cc2ccc(-c3ncc(N4CCC(c5ccccc5)CC4)cn3)cc2)C(=O)N2CC(C(=O)O)C2)s1` [Compound 1426], the EC50 lay within 800 to 2500 nM.

`CC1CCC(C2CCN(c3cnc(-c4ccc(C[C@H](NC(=O)c5ccc(C(C)(C)C)s5)C(=O)N5CC(C(=O)O)C5)cc4)nc3)CC2)CC1` (stereo partly shown) [Compound 1427]: the EC50 is under 800 nM.

As for `CCCCC1CCC(C2CCN(c3cnc(-c4ccc(C[C@H](NC(=O)c5ccc(C(C)(C)C)s5)C(=O)N5CC(C(=O)O)C5)cc4)nc3)CC2)CC1` (stereo partly shown) [Compound 1428], the EC50 was under 800 nM.

Consider `CCC1CCC(C2CCN(c3cnc(-c4ccc(C[C@H](NC(=O)c5ccc(C(C)(C)C)s5)C(=O)N5CC(C(=O)O)C5)cc4)nc3)CC2)CC1` (stereo partly shown) [Compound 1429], for which the EC50 is under 800 nM.

Take `Cc1ccc(C2CCN(c3cnc(-c4ccc(C[C@H](NC(=O)c5ccc(C(C)(C)C)s5)C(=O)N5CC(C(=O)O)C5)cc4)nc3)CC2)cc1` [Compound 1430]: the EC50 is under 800 nM.

With `CC(C)(C)c1ccc(C(=O)N[C@@H](Cc2ccc(-c3ncc(N4CCC(C5CCCCC5)CC4)cn3)cc2)C(=O)N2CC(C(=O)O)C2)s1` [Compound 1431], the EC50 was under 800 nM.

`CCCc1ccc(C2CCN(c3cnc(-c4ccc(C[C@H](NC(=O)c5ccc(C(C)(C)C)s5)C(=O)N5CC(C(=O)O)C5)cc4)nc3)CC2)cc1` [Compound 1432]: the EC50 was under 800 nM.

Regarding `CCC[C@H]1CC[C@H](C2CCN(c3cnc(-c4ccc(C[C@H](NC(=O)c5ccc(C(C)(C)C)s5)C(=O)NCCC(=O)O)cc4)nc3)CC2)CC1` [Compound 1433], the EC50 was under 800 nM.

As to `CCCC1CCC(N2CC=C(c3cnc(-c4ccc(C[C@H](NC(=O)c5ccc(C(C)(C)C)s5)C(=O)N5CC(C(=O)O)C5)cc4)nc3)CC2)CC1` (stereo partly shown) [Compound 1434], the EC50 is 5000 to 10000 nM.

Regarding `CCC[C@H]1CC[C@H](N2CCN(c3cnc(-c4ccc(C[C@H](NC(=O)c5ccc(C(C)(C)C)s5)C(=O)N5CC(C(=O)O)C5)cc4)nc3)CC2)CC1` [Compound 1435], the EC50 was in the range of 800 to 2500 nM.

For the compound `CCC[C@H]1CC[C@@H](N2CCN(c3cnc(-c4ccc(C[C@H](NC(=O)c5ccc(C(C)(C)C)s5)C(=O)N5CC(C(=O)O)C5)cc4)nc3)CC2)CC1` [Compound 1436], the EC50 lay within 800 to 2500 nM.

Turning to `CCC[C@H]1CC[C@H](C2CCN(c3cnc(-c4ccc(C[C@H](NC(=O)c5ccc(C(C)(C)C)s5)C(=O)N[C@H](C)C(=O)O)cc4)nc3)CC2)CC1` [Compound 1437], the EC50 was under 800 nM.

`CCC[C@H]1CC[C@H](C2CCN(c3cnc(-c4ccc(C[C@H](NC(=O)c5ccc(C(C)(C)C)s5)C(=O)NS(C)(=O)=O)cc4)nc3)CC2)CC1` [Compound 1438, 5-(tert-butyl)-N—((S)-1-(methylsulfonamido)-1-oxo-3-(4-(5-(4-((1s,4r)-4-propylcyclohexyl)piperidin-1-yl)pyrimidin-2-yl)phenyl)propan-2-yl)thiophene-2-carboxamide]: the EC50 was under 800 nM.

Consider `CCC[C@H]1CC[C@H](C2CCN(c3cnc(-c4ccc(C[C@H](NC(=O)c5ccc(C(C)(C)C)s5)C(=O)O)cc4)nc3)CC2)CC1` [Compound 1439, (S)-2-(5-(tert-butyl)thiophene-2-carboxamido)-3-(4-(5-(4-((1s,4r)-4-propylcyclohexyl)piperidin-1-yl)pyrimidin-2-yl)phenyl)propanoic acid], for which the EC50 is under 800 nM.

For `CC(C)(C)c1ccc(C(=O)N[C@@H](Cc2ccc(-c3ccc(-n4c5ccccc5c5ccccc54)cc3)cc2)C(=O)O)s1` [Compound 1440], the EC50 lay in the range of 5000 to 10000 nM.

Turning to `CCC[C@H]1CC[C@H](C2CCN(c3cnc(-c4ccc(C[C@H](NC(=O)c5ccc(C(C)(C)C)s5)C(=O)N[C@H](C)C(N)=O)cc4)nc3)CC2)CC1` [Compound 1441], the EC50 was in the range of 800 to 2500 nM.

On to `CCC[C@H]1CC[C@H](C2CCN(c3cnc(-c4ccc(C[C@H](NC(=O)c5ccc(C(C)(C)C)s5)C(=O)N5CC(c6nn[nH]n6)C5)cc4)nc3)CC2)CC1` [Compound 1442], for which the EC50 was under 800 nM.

For `CCC[C@H]1CC[C@H](C2CCN(c3cnc(-c4ccc(C[C@H](NC(=O)c5ccc(C(C)(C)C)s5)C(=O)N[C@H](CC)C(=O)O)cc4)nc3)CC2)CC1` [Compound 1443], the EC50 is under 800 nM.

On to `CCC[C@H]1CC[C@H](C2CCN(c3cnc(-c4ccc(C[C@H](NC(=O)c5ccc(C(C)(C)C)s5)C(=O)N[C@@H](C(=O)O)C5CC5)cc4)nc3)CC2)CC1` [Compound 1444], for which the EC50 was under 800 nM.

Turning to `CCC[C@H]1CC[C@H](C2CCN(c3cnc(-c4ccc(C[C@H](NC(=O)c5ccc(C(C)(C)C)s5)C(=O)N[C@H](CCC(N)=O)C(=O)O)cc4)nc3)CC2)CC1` [Compound 1445], the EC50 is under 800 nM.

`CCC[C@H]1CC[C@H](C2CCN(c3cnc(-c4ccc(C[C@H](NC(=O)c5ccc(C(C)(C)C)s5)C(=O)N[C@H](Cc5c[nH]cn5)C(=O)O)cc4)nc3)CC2)CC1` [Compound 1446]: the EC50 was under 800 nM.

On to `CCC[C@H]1CC[C@H](C2CCN(c3cnc(-c4ccc(C[C@H](NC(=O)c5ccc(C(C)(C)C)s5)C(=O)N[C@H]5C[C@H](C(=O)O)C5)cc4)nc3)CC2)CC1` [Compound 1447], for which the EC50 is under 800 nM.

In the case of `CCC[C@H]1CC[C@H](C2CCN(c3cnc(-c4ccc(C[C@H](NC(=O)c5ccc(C(C)(C)C)s5)C(=O)N5C6CCC5[C@@H](C(=O)O)C6)cc4)nc3)CC2)CC1` (stereo partly shown) [Compound 1448], the EC50 was in the range of 5000 to 10000 nM.

For the compound `CCC[C@H]1CC[C@H](C2CCN(c3cnc(-c4ccc(C[C@H](NC(=O)c5ccc(C(C)(C)C)s5)C(=O)N[C@@H](C(=O)O)C(C)C)cc4)nc3)CC2)CC1` [Compound 1449], the EC50 is under 800 nM.

With `CCC[C@H]1CC[C@H](C2CCN(c3cnc(-c4ccc(C[C@H](NC(=O)c5ccc(C(C)(C)C)s5)C(=O)N5CC(C)(C(=O)O)C5)cc4)nc3)CC2)CC1` [Compound 1450], the EC50 was under 800 nM.

As to `CCC[C@H]1CC[C@H](C2CCN(c3cnc(-c4ccc(C[C@H](NC(=O)c5ccc(C(C)(C)C)s5)C(=O)N5CC(F)(C(=O)O)C5)cc4)nc3)CC2)CC1` [Compound 1451], the EC50 is 800 to 2500 nM.

Take `CCC[C@H]1CC[C@H](C2CCN(c3cnc(-c4ccc(C[C@H](NC(=O)c5ccc(C(C)(C)C)s5)C(=O)N5CC(OC)(C(=O)O)C5)cc4)nc3)CC2)CC1` [Compound 1452]: the EC50 was under 800 nM.

As for `CCC[C@H]1CC[C@H](C2CCN(c3cnc(-c4ccc(C[C@H](NC(=O)c5ccc(C(C)(C)C)s5)C(=O)NC5(C(=O)O)CC5)cc4)nc3)CC2)CC1` [Compound 1453], the EC50 is under 800 nM.

Take `CCC[C@H]1CC[C@H](C2CCN(c3cnc(-c4ccc(C[C@H](NC(=O)c5ccc(C(C)(C)C)s5)C(=O)NC(C(=O)O)c5ccco5)cc4)nc3)CC2)CC1` (stereo partly shown) [Compound 1454]: the EC50 was under 800 nM.

Take `CCC[C@H]1CC[C@H](C2CCN(c3cnc(-c4ccc(C[C@H](NC(=O)c5ccc(C(C)(C)C)s5)C(=O)N5CCCC[C@H]5C(=O)O)cc4)nc3)CC2)CC1` [Compound 1455]: the EC50 was under 800 nM.
